Data published in patent publication US5747528A, “Chroman derivatives as anti-oxidants” (Warner-Lambert Company, priority 1997, dated 1998).

Tested on: VCAM-1
Assay: VCAM-1 assay: immunoassay of cell-surface VCAM-1 expression on TNF-stimulated human aortic endothelial cells (HAEC)
Type: cell-based
Conditions: TNF 250 U/mL, overnight (18 hours)
From the text: CELL CULTURE: Human aortic endothelial cells (CellSystem) Media: 50:50 mix of CS 3.0 (CellSystem) and MCDB-107 (Sigma) 10% fetal bovine serum (FBS) (Hyclone) Tissue culture plates (24 well) (Costar) TNF: recombinant Tumor necrosis factor-alpha (Genzyme)
IMMUNOASSAYS: 10% buffered Formalin (Baxter) Dulbecco's modified eagle medium (DMEM), Phosphate buffered saline (PBS) (Gibco) Bovine serum albumin (BSA) (Sigma) Anti-ICAM-1 antibody (R&D System, BBA#3) Sheep anti-mouse IgG (Cappel, #55558) Horseradish peroxidase (HRP)-KIT (Bio-Rad, #172-1064) Anti-VCAM-1 antibody (R&D System, BBA#6) Goat anti-mouse IgG+IgM, F(ab)2 fragments, biotin conjugated (Jackson Immuno Research Lab, #115-066-068) 125-I-Streptavidin (Amersham, #IM.236)
Human aortic endothelial cells (HAEC) were seeded at 100,000 cells/mL/well in 24 well cluster plates and placed in a 5% CO2 to […] humidified incubator at 37° C. […]
The cells were incubated with anti-VCAM-1 monoclonal antibody (1.25 μg/mL) for 2 hours at 37° C. […] Cells were washed again (4 times) and digested overnight with the addition of 500 μL of 1N NaOH and radioactivity contained in the digests counted. Cell-surface VCAM-1 expression is shown as radioactivity bound to the cell surface under various conditions.

IC50: 23.1 µM
Compound: Cc1c(C)c2c(c(C)c1O)CCC(C)(COc1ccc(NC(=S)NC(c3ccccc3)c3ccccc3)cc1)O2 (stereo not shown) [Example 1, 1-Benzhydryl-3-[4-(6-hydroxy-2,5,7,8-tetramethyl-Chroman-2-ylmethoxy)-phenyl]-thiourea]
